Measured values published in the NIST ThermoML archive (doi:10.1016/j.jct.2014.05.005).
Numbers after ± are expanded uncertainties.

Key:
[1] = Molar enthalpy of transition or fusion; settings: Crystal; DSC
[2] = for Normal melting temperature: Crystal, DTA; for mass density: 298.15 K, 101.33 kPa, Liquid, Vibrating tube method

Row | Compound | Molar enthalpy of transition or fusion [1] [kcal/mol] | Normal melting temperature [2] [°C] | mass density [2] [kg/m3]
1 | Cn1c(=O)c2[nH]cnc2n(C)c1=O [3,7-dihydro-1,3-dimethyl-1H-purine-2,6-dione] | 7.23 ± 0.158 | 271.4 ± 0.4 | –
2 | Cn1c(=O)c2c(ncn2CCO)n(C)c1=O [7-(2-hydroxyethyl)-1,3-dimethylxanthine] | 7.8 ± 0.17 | 162.7 ± 0.4 | –
3 | CCO [ethanol] | – | – | 785.12 ± 1
4 | CCCCCCCCO [octan-1-ol] | – | – | 822.99 ± 1
